Values joined by “and” are separate entries in the source; they are usually repeats but may differ in a detail not shown here. Equal values may be shown once. Where a name gives a salt, the structure may show the parent alone.
Columns and labels:
[1] = Density, pH and surface tension of solutions (capillary method); assay type: physicochemical; conditions: for reduction of surface tension of water: DDW, baseline 64.9 dyne/cm
Protocol: Tween 80 was used as a control surfactant for comparison. Densities were measured on 1 mL fixed volume samples. […] The effect of veldoreotide acetate on the pH of double distilled water (DDW) was the same at all veldoreotide acetate concentrations. The pH of DDW of 5.0 was reduced to pH 4.5. The effect of veldoreotide acetate on the density of DDW (starting density of DDW was 1.003 g/ml) was concentration dependent from 1.4 mg/ml to 21.5 mg/ml with density ranging from 0.986 to 0.998 g/ml respectively. However, at veldoreotide acetate concentrations of 45 and 102 mg/ml the density was increased above the starting density of DDW. […] The effect of veldoreotide acetate on the surface tension of DDW (starting surface tension was 64.9 dyne/cm) was consistent with veldoreotide acetate behaving as a peptide amphiphile (surfactant). The surface tension of DDW was reduced by veldoreotide acetate at maximum from 64.9 to 45 dyne/cm. In order to elucidate the meaning of this effect, Tween 80 was used as a reference surfactant. Other surfactants include Polexamer 188. The reduction of surface tension induced by Tween 80 was in the range of 40% (from 64.9 dyne/cm to about 39 dyne/cm), in comparison to veldoreotide acetate of 30% (from 64.9 dyne/cm to about 45 dyne/cm). Note that, under these experimental conditions; the effect of Tween 80 indicated a concentration-effect relationship. Whereas, the effect of veldoreotide acetate on the reduction of surface tension was at the same range for all concentrations tested.
The data of table 4 show the surface activity of highly concentrated COR005 acetate (200 mg/ml), with or without additives in WFI, which emulates the preparation conditions of the primary emulsion of the microspheres. The results of Test 1 and 2 (Table 4) show the effect of COR005 acetate on the surface tension of water. When COR005 acetate is dissolved in water the surface tension is reduced by about 36%, from 68.5 dyne/cm for the water alone to 44 dyne/cm for the solution of water with CR005 acetate at 200 mg/ml.

in vivo = assay: in vivo; parameters: species or system rats; conditions: rat, sc
Protocol: The lactic acid vehicle for use in the formulations as shown in Table 7 below was prepared as follows: Formulations for injection into rats were prepared as summarized in Table 8. Subject rats (mean weight of about 370 grams per subject) were injected according to the above dosing schedule in groups of 5 rats per treatment. Baseline tail bleed samples were drawn from the rats at 2 days prior to dosing. […] Blood samples were approximately 300 uL of whole blood collected in commercial K3 EDTA-coated tubes. Subject rats were also observed for injection site reactions for up to 5-7 days post-dosing. Blood samples were kept on ice following collection until the time of centrifugation. Blood samples were processed within 60 minutes from blood collection. Samples were centrifuged at 3000 G for 15 minutes in a refrigerated centrifuge (5° C.). Plasma was withdrawn from the tubes after centrifugation and placed into new, appropriately labeled tubes and stored at −65° C. to −80° C. until transfer. […] Veldoreotide acetate standard was serially diluted with methanol:water (1:9) and added to blank rat plasma to generate calibration standards and QC samples. The calibration samples were stored at −70° C. Frozen samples were then thawed to room temperature. Blank plasma and reagent blank (water) were also prepared. For each 100 uL aliquot of sample, calibrator or QC sample, 25 uL (˜100 ng/mL) of internal standard (octreotide acetate) in methanol:water (1:9) and 600 uL of acetonitrile:formic acid (99:1) were added and the samples vortex mixed for 30 seconds. Samples were diluted by mixing 20 uL of plasma sample with 180 uL of blank plasma and aliquotted at 100 uL prior to addition of the internal standard and acetonitrile:formic acid solutions. Samples were then centrifuged for 10 minutes at 14,000 rpm at 8° C. 450 uL of the upper (organic) layer was then transferred to evaporation tubes and evaporated under nitrogen at about 50° C. Samples were then reconstituted in 200 uL of reconstitution solution (water:acetonitrile:formic acid at 70:30:0.2). Samples were centrifuged for 10 minutes at 4000 rpm at 8° C. 160 uL of each sample was withdrawn and placed in an autosampler vial with conic glass insert and analyzed via LC-MS/MS. Veldoreotide acetate plasma concentrations were then plotted and analyzed using standard pharmacokinetic techniques.

[2] = Emulsification of cottonseed oil and water for injection; assay type: physicochemical
Protocol: Based on its amphiphilic properties, veldoreotide acetate was evaluated by means of emulsion formulation. […] Thus, veldoreotide acetate may be considered a w/o ionic surfactant or hydrotrope with a hydrophilic lipophilic balance (HLB) of 6.
The samples were mixed using 25G syringe and vortexed at room temperature.
Veldoreotide was formulated as a water in oil emulsion using 80% (wt %) cottonseed oil, 20% (wt %) water for injection (WFI) and 1% (wt %) veldoreotide acetate. Specifically, 10 mg of veldoreotide acetate was dissolved in 200 uL WFI in a 5 mL glass vial, 800 mg of cottonseed oil was added and the resulting mixture was stirred under magnetic stirring at room temperature for 15 minutes at 1000 rpm. The emulsion was then viewed under the light microscope and stored under refrigeration. The resulting emulsion was stable and found to be injectable via 27G needle.

[3] = 1.4 mg/ml in DDW pH 4.5, 25° C.
[4] = 102 mg/ml in DDW pH 4.5, 25° C.
[5] = 200 mg/ml + 50 mg/ml HPBCD in WFI (HPB:PEP 1:4), 5° C.
[6] = 200 mg/ml + 100 mg/ml HPBCD in WFI (HPB:PEP 1:2), 5° C.
[7] = 200 mg/ml in 5% Dextrose in WFI (DEX:PEP 1:8), 5° C.

With `C[C@@H](O)[C@@H]1NC(=O)[C@H](CCCCN)NC(=O)[C@@H](Cc2c[nH]c3ccccc23)NC(=O)[C@H](Cc2c[nH]c3ccccc23)NC(=O)[C@H](Cc2ccccc2)NC(=O)CCCNC(=O)CCCN(CC(N)=O)C(=O)[C@H](Cc2ccccc2)NC1=O` [Veldoreotide Acetate, Cyclo(-γ-aminobutyryl-L-phenylalanyl-L-tryptophanyl-D-tryptophanyl-L-lysyl-L-threonyl-L-phenylalanyl-N-carbamoylmethyl-γ-aminobutyryl), acetate salt] the “% change in surface tension compared to baseline” value (shortened to “% change in surface tension”) [1, 3] was −30%, the “Density (g/ml) Weighted 1 ml” value [1, 3] was 0.986 g/mL and the “Surface tension (dyne/cm) capillary method” value [1, 3] was 45.2 dyne/cm. For the same molecule, the “density of DDW solution” value ([1]; 1.4 mg/ml to 21.5 mg/ml, starting density of DDW 1.003 g/ml) was 0.986 to 0.998 g/mL, the “% change in surface tension” value ([1]; 12 mg/ml in DDW pH 4.5, 25° C.) was −28% and the “Density (g/ml) Weighted 1 ml” value ([1]; 12 mg/ml in DDW pH 4.5, 25° C.) was 0.994 g/mL. For the same molecule, the “Surface tension (dyne/cm) capillary method” value ([1]; 12 mg/ml in DDW pH 4.5, 25° C.) was 46.9 dyne/cm, the “% change in surface tension” value ([1]; 21 mg/ml in DDW pH 4.5, 25° C.) was −27% and the “Density (g/ml) Weighted 1 ml” value ([1]; 21 mg/ml in DDW pH 4.5, 25° C.) was 0.998 g/mL. For the same molecule, the “Surface tension (dyne/cm) capillary method” value ([1]; 21 mg/ml in DDW pH 4.5, 25° C.) was 47.1 dyne/cm, the “% change in surface tension” value ([1]; 45 mg/in DDW pH 4.5, 25° C.) was −29% and the “Density (g/ml) Weighted 1 ml” value ([1]; 45 mg/in DDW pH 4.5, 25° C.) was 1.003 g/mL. For the same molecule, the “Surface tension (dyne/cm) capillary method” value ([1]; 45 mg/in DDW pH 4.5, 25° C.) was 45.97 dyne/cm, the “% change in surface tension” value [1, 4] was −24% and the “Density (g/ml) Weighted 1 ml” value [1, 4] was 1.015 g/mL. The “Surface tension (dyne/cm) capillary method” value [1, 4] was 49.3 dyne/cm, the “% change in surface tension” value [1, 5] was −34% and the “Density (g/ml) Weighted 1 ml” value [1, 5] was 1.04 g/mL. For the same molecule, the “Surface tension (dyne/cm) capillary method” value [1, 5] was 45 dyne/cm, the “% change in surface tension” value [1, 6] was −26% and the “Density (g/ml) Weighted 1 ml” value [1, 6] was 1.12 g/mL. For the same molecule, the “Surface tension (dyne/cm) capillary method” value ([1]; 200 mg/ml + 100 mg/ml HPBCD in WFI (HPB:PEP 1:2), 5° C., acetate salt) was 51 dyne/cm, the “Surface tension (dyne/cm) capillary method” value ([1]; 200 mg/ml + 100 mg/ml HPBCD in WFI (HPB:PEP 1:2), 5° C., listed as peptide, acetate salt) was 52 dyne/cm and 51 dyne/cm and the “% change in surface tension” value [1, 7] was −14%. For the same molecule, the “Density (g/ml) Weighted 1 ml” value [1, 7] was 1.03 g/mL, the “Surface tension (dyne/cm) capillary method” value ([1]; 200 mg/ml in 5% Dextrose in WFI (DEX:PEP 1:8), 5° C., acetate salt) was 54 dyne/cm and the “Surface tension (dyne/cm) capillary method” value ([1]; 200 mg/ml in 5% Dextrose in WFI (DEX:PEP 1:8), 5° C., listed as peptide, acetate salt) was 54 dyne/cm. The “Density (g/ml) Weighted 1 ml” value ([1]; 200 mg/ml in WFI, 5° C.) was 1.03 g/mL, the “Surface tension (dyne/cm) capillary method” value ([1]; 200 mg/ml in WFI, 5° C.) was 44 dyne/cm and the “% change in surface tension” value ([1]; 200 mg/ml in WFI, 5° C., acetate salt) was −36%. The “% change in surface tension” value ([1]; 200 mg/ml in WFI, 5° C., listed as COR005 acetate, acetate salt) was “about 36%”, the “surface tension of DDW solution” value ([1]; DDW pH 5.0, 25° C., baseline 64.9 dyne/cm (text summary, concentration not specified), acetate salt) was “about 45 dyne/cm” and the “reduction of surface tension of water” value ([1]; 25° C., acetate salt) was 30%. The “pH of DDW solution” value ([1]; all concentrations, DDW pH 5.0 before) was 4.5, the Cmax (in vivo; Sprague-Dawley, 3 mg/kg, Rats Cmax (ng/ml)) was 544 ng/mL and the bioavailability (in vivo; Sprague-Dawley, 3 mg/kg, pH 4, Rats BA (F %)) was 83%. The Cmax (in vivo; Sprague-Dawley, 3 mg/kg, pH 4, Rats Cmax (ng/ml)) was 345 ng/mL, the bioavailability (in vivo; Sprague-Dawley, […], Rats BA (F %)) was 82% and the bioavailability (in vivo; Sprague-Dawley, pH 4, Rats BA (F %)) was 70%. For the same molecule, the Cmax (in vivo; Sprague-Dawley, pH 4, Rats Cmax (ng/ml)) was 350 ng/mL and the “hydrophilic lipophilic balance (HLB)” value ([2]; w/o ionic surfactant or hydrotrope) was 6.
In the case of `C[C@@H](O)[C@@H]1NC(=O)[C@H](CCCCN)NC(=O)[C@@H](Cc2c[nH]c3ccccc23)NC(=O)[C@H](Cc2c[nH]c3ccccc23)NC(=O)[C@H](Cc2ccccc2)NC(=O)CCCNC(=O)CCCN(CC(N)=O)C(=O)[C@H](Cc2ccccc2)NC1=O` [Veldoreotide, cyclo(-γ-aminobutyryl-L-phenylalanyl-L-tryptophanyl-D-tryptophanyl-L-lysyl-L-threonyl-L-phenylalanyl-N-carbamoylmethyl-γ-aminobutyryl)], the “reduction of surface tension of water” value ([1]; 25° C.) is reported as “more than 30%”, the Cmax (in vivo; HSD:Sprague Dawley SD, 3 mg/kg, Rats Cmax (ng/ml)) is reported as 544 ng/mL and the Cmax (in vivo; HSD:Sprague Dawley SD, 3 mg/kg, pH 4, Rats Cmax (ng/ml)) is reported as 345 ng/mL. For the same molecule, the emulsification ([2]; 16.6 weight % cottonseed oil, 74.2 weight % WFI, 9.2 weight % peptide, room temperature) was “allowing an emulsion to form”.
